{"source": "patent US20090227560A1", "about": "“Substituted imidazole compound and use thereof” (priority 2007, published 2009)", "note": "Where a name gives a salt, the structure may show the parent alone."}
{"target": "T1, Human renin (Homo sapiens, UniProt P00797)", "T1 construct": "thus to obtain 1.5 mg of a purified product of active type renin (67-406); made in house; host or cells: FreeStyle 293-F cells (transient expression of pcDNA3.1(+)/hREN)", "T1 sequence (P00797 67-406)": "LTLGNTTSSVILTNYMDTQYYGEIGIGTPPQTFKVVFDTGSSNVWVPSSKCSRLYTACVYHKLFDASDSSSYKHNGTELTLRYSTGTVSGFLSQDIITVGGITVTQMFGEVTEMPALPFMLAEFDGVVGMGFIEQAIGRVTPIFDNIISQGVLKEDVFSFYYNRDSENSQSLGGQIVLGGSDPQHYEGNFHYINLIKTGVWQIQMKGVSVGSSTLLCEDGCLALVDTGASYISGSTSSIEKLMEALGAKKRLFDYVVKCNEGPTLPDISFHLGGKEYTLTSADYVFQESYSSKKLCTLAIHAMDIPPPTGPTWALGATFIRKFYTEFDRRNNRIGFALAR", "test": "Measurement of renin inhibition value A (FITC-labelled substrate peptide, capillary electrophoresis)", "assay_type": "biochemical", "conditions": "test compound 1 μM, renin 4.7 nM, pH 6.0, 37° C., 30 min, read-out: inhibitory activity (%) at 1 μM", "method": "Human renin was obtained by expressing preprorenin (1-406) in an animal cell, treating the prorenin (24-406) contained in the culture supernatant with trypsin, and taking the active type (67-406).\nTo 3.6 mg of prorenin (24-406) dissolved in 5.2 ml of 0.1 M Tris-hydrochloric acid (pH 8.0), 12 μg of trypsin (Roche Diagnostics Corp.) was added, and the mixture was allowed to react at 28° C. for 55 min to carry out activation of renin. After the reaction, 0.4 ml of immobilized trypsin inhibitor (Pierce Biotechnology, Inc.) was added to remove the trypsin used in the activation by adsorption. The reaction liquid containing the active type renin was concentrated using Vivaspin 20 (molecular weight cut off 10,000, Vivascience, Inc.), and was diluted with 20 mM Tris-hydrochloric acid (pH 8.0). The diluted liquid was fed to a TSKgel DEAE-5PW column (7.5 mm I.D.×75 mm, Tosoh Corp.) equilibrated with 20 mM Tris-hydrochloric acid (pH 8.0) at a flow rate of 1 ml/min to adsorb the active type renin (67-406). The column was washed with the buffer solution used for the equilibration, and then elution was carried out by means of a sodium chloride linear concentration gradient from 0 M to 0.3 M, thus to obtain 1.5 mg of a purified product of active type renin (67-406).\nAs a substrate for renin activity measurement, a substrate peptide (FITC-Acp-Asp-Arg-Val-Tyr-Ile-His-Pro-Phe-His-Leu-Val-Ile-His-Gln-Arg-NH2; SEQ ID No.8) wherein the N-terminal of a peptide prepared in reference to a partial sequence (Asp-Arg-Val-Tyr-Ile-His-Pro-Phe-His-Leu-Val-Ile-His-Asn-Glu-NH2; SEQ ID No.7) of human angiotensinogen was bound with epsilon aminocaproic acid (Acp) as a linker and labeled with a fluorescence reagent Fluorescein isothiocyanate (FITC). 2 μl each of the test compound (containing 100% DMSO) was added to each well of a 384-well black plate (Nalge Nunc International Co., Ltd.). Renin was diluted with a buffer solution for reaction (20 mM citric acid-sodium citrate (pH 6.0)) to a concentration of 4.7 nM, and 30 μl each of the dilution was added to each well. The dilution was left to stand at 37° C. for 10 min, and then 8 μl of each of a 25 μM solution of substrate peptide was added to each well to initiate the reaction. The reaction mixture was left to stand at 37° C. for 30 min, and then 40 μl each of a reaction terminating solution [200 mM Tris-hydrochloric acid (pH 8.0), 0.04% Triton-X 100, 0.4% Coating 3 reagent (Caliper Life Sciences Corp.) and 1 μM CGP-29287 (Bachem Holding AG)] was added to each well to terminate the reaction.\nThe substrate peptide and the product peptide were separated by a microchip type capillary electrophoresis system 250HTS (Caliper Life Sciences Co., Ltd.), and the rate of reaction [(peak height of product)/(peak height of product+peak height of substrate)×100(%)] was calculated from the ratio of the respective peak height of the peptides obtained by fluorimetric detection (excitation wavelength 457 nm, measurement wavelength 530 nm), and was used as an index of the renin activity.\nWhile the reaction rate of the well where 100% DMSO only was added was taken as 0% inhibition rate, and the reaction rate of the well where 10 μM of CGP-29287 was added was taken as 100% inhibition rate, the renin inhibitory activity of the wells where the test compound (containing 100% DMSO) was added was calculated.", "units": {"inhibition at 1 µM": "%"}}
{"compound": "COC[C@]1(O)CCCC[C@H]1n1cnc(C(=O)N2CCNC[C@H]2Cc2cccnc2)c1-c1ccccc1", "note": "[Example 380, (1S,2R)-1-(Methoxymethyl)-2-(5-phenyl-4-{[(2R)-2-(pyridin-3-ylmethyl)piperazin-1-yl]carbonyl}-1H-imidazol-1-yl)cyclohexanol dihydrochloride]", "inhibition at 1 µM": 100}
{"compound": "COC[C@]1(O)CCCC[C@H]1n1cnc(C(=O)N2CCNC[C@H]2Cc2ccccc2)c1-c1ccccc1", "note": "[Example 367, (1S,2R)-2-(4-{[(2R)-2-Benzylpiperazin-1-yl]carbonyl}-5-phenyl-1H-imidazol-1-yl)-1-(methoxymethyl)cyclohexanol dihydrochloride]", "inhibition at 1 µM": 99}
{"compound": "O=C(c1ncn(CC2(O)CCCCC2)c1-c1ccccc1)N1CCNC[C@H]1Cc1ccccc1", "note": "[Example 4, 1-[(4-{[(2R)-2-Benzylpiperazin-1-yl]carbonyl}-5-phenyl-1H-imidazol-1-yl)methyl]cyclohexanol]", "inhibition at 1 µM": 99}
{"compound": "COC[C@]1(O)CCCC[C@H]1n1cnc(C(=O)N2CCNC[C@H]2CCOc2ccccc2F)c1-c1ccccc1", "note": "[Example 389, (1S,2R)-2-[4-({(2R)-2-[2-(2-Fluorophenoxy)ethyl]piperazin-1-yl}carbonyl)-5-phenyl-1H-imidazol-1-yl]-1-(methoxymethyl)cyclohexanol]", "inhibition at 1 µM": 106}
{"compound": "CCOC(=O)N[C@H]1CCCC[C@@H]1n1cnc(C(=O)N2CCNC[C@H]2Cc2cc(F)cc(F)c2)c1-c1ccccc1", "note": "[Example 358, Ethyl [(1S,2S)-2-(4-{[(2R)-2-(3,5-difluorobenzyl)piperazin-1-yl]carbonyl}-5-phenyl-1H-imidazol-1-yl)cyclohexyl]carbamate]", "inhibition at 1 µM": 103}
{"compound": "COC[C@]1(O)CCCC[C@H]1n1cnc(C(=O)N2CCNC[C@H]2Cc2ccccc2)c1-c1cccc(F)c1", "note": "[Example 383, (1S,2R)-2-[4-{[(2R)-2-Benzylpiperazin-1-yl]carbonyl}-5-(3-fluorophenyl)-1H-imidazol-1-yl]-1-(methoxymethyl)cyclohexanol]", "inhibition at 1 µM": 100}
{"compound": "CCOC(=O)N[C@H]1CCCC[C@@H]1n1cnc(C(=O)N2CCNC[C@H]2Cc2ccccc2)c1-c1ccccc1", "note": "[Example 357, Ethyl [(1S,2S)-2-(4-{[(2R)-2-benzylpiperazin-1-yl]carbonyl}-5-phenyl-1H-imidazol-1-yl)cyclohexyl]carbamate]", "inhibition at 1 µM": 100}
{"compound": "O=C(c1ncn([C@H]2CCCC[C@H]2O)c1-c1ccccc1)N1CCNC[C@H]1Cc1cc(F)cc(F)c1", "note": "[Example 1, (1R,2S)-2-(4-{[(2R)-2-(3,5-Difluorobenzyl)piperazin-1-yl]carbonyl}-5-phenyl-1H-imidazol-1-yl)cyclohexanol hydrochloride]", "inhibition at 1 µM": 96}
{"compound": "O=C(c1ncn([C@@H]2CCCC[C@@]2(O)CC2CC2)c1-c1ccccc1)N1CCNC[C@H]1Cc1ccccc1", "note": "[Example 363, (1R,2R)-2-(4-{[(2R)-2-Benzylpiperazin-1-yl]carbonyl}-5-phenyl-1H-imidazol-1-yl)-1-(cyclopropylmethyl)cyclohexanol hydrochloride]", "inhibition at 1 µM": 98}
{"compound": "O=C(c1ncn(C2CCCCC2)c1-c1ccccc1)N1CCNC[C@H]1Cc1ccccc1", "note": "[Example 349, (2R)-2-Benzyl-1-[(1-cyclohexyl-5-phenyl-1H-imidazol-4-yl)carbonyl]piperazine]", "inhibition at 1 µM": 101}
{"compound": "COC[C@]1(O)CCCC[C@H]1n1cnc(C(=O)N2CCNC[C@H]2CCOc2ccc(C(=O)OC)cc2)c1-c1ccccc1", "note": "[Example 15, Methyl 4-{2-[(2R)-1-({1-[(1R,2S)-2-hydroxy-2-(methoxymethyl)cyclohexyl]-5-phenyl-1H-imidazol-4-yl}carbonyl)piperazin-2-yl]ethoxy}benzoate]", "inhibition at 1 µM": 96}
{"compound": "COC[C@]1(O)CCCC[C@H]1n1cnc(C(=O)N2CCNC[C@H]2Cc2cc(F)cc(F)c2)c1-c1ccccc1", "note": "[Example 379, (1S,2R)-2-(4-{[(2R)-2-(3,5-Difluorobenzyl)piperazin-1-yl]carbonyl}-5-phenyl-1H-imidazol-1-yl)-1-(methoxymethyl)cyclohexanol hydrochloride]", "inhibition at 1 µM": 99}
{"compound": "COC[C@]1(O)CCCC[C@H]1n1cnc(C(=O)N2CCNC[C@H]2CCn2ncc3ccccc32)c1-c1ccccc1", "note": "[Example 391, (1S,2R)-2-[4-({(2R)-2-[2-(1H-Indazol-1-yl)ethyl]piperazin-1-yl}carbonyl)-5-phenyl-1H-imidazol-1-yl]-1-(methoxymethyl)cyclohexanol]", "inhibition at 1 µM": 109}
{"compound": "CSCCCOC[C@@]1(O)CCCC[C@@H]1n1cnc(C(=O)N2CCNC[C@H]2Cc2ccccc2)c1-c1ccccc1", "note": "[Example 378, (1R,2S)-2-(4-{[(2R)-2-Benzylpiperazin-1-yl]carbonyl}-5-phenyl-1H-imidazol-1-yl)-1-{[3-(methylthio)propoxy]methyl}cyclohexanol]", "inhibition at 1 µM": 99}
{"compound": "COC[C@]1(O)CCCC[C@H]1n1cnc(C(=O)N2CCNC[C@H]2CCOc2ccc(C(=O)NC3CC3)cc2)c1-c1ccccc1", "note": "[Example 390, N-Cyclopropyl-4-{2-[(2R)-1-({1-[(1R,2S)-2-hydroxy-2-(methoxymethyl)cyclohexyl]-5-phenyl-1H-imidazol-4-yl}carbonyl)piperazin-2-yl]ethoxy}benzamide]", "inhibition at 1 µM": 105}
{"compound": "COC(=O)N[C@H]1CCCC[C@@H]1n1cnc(C(=O)N2CCNC[C@H]2Cc2ccccc2)c1-c1ccccc1", "note": "[Example 6, Methyl [(1S,2S)-2-(4-{[(2R)-2-benzylpiperazin-1-yl]carbonyl}-5-phenyl-1H-imidazol-1-yl)cyclohexyl]carbamate]", "inhibition at 1 µM": 98}
{"compound": "O=C(c1ncn(C2CCCCC[C@@H]2O)c1-c1ccccc1)N1CCNC[C@H]1Cc1ccccc1", "note": "(stereo partly drawn) [Example 7, trans-2-(4-{[(2R)-2-Benzylpiperazin-1-yl]carbonyl}-5-phenyl-1H-imidazol-1-yl)cycloheptanol]", "inhibition at 1 µM": 100}
{"compound": "COC[C@]1(O)CCCC[C@H]1n1cnc(C(=O)N2CCNC[C@H]2CCOc2ccccc2)c1-c1ccccc1", "note": "[Example 387, (1S,2R)-1-(Methoxymethyl)-2-(4-{[(2R)-2-(2-phenoxyethyl)piperazin-1-yl]carbonyl}-5-phenyl-1H-imidazol-1-yl)cyclohexanol dihydrochloride]", "inhibition at 1 µM": 109}
{"compound": "CCOCC1(O)CCCCC1n1cnc(C(=O)N2CCNC[C@H]2Cc2ccccc2)c1-c1ccccc1", "note": "(stereo partly drawn) [Example 361, 2-(4-{[(2R)-2-Benzylpiperazin-1-yl]carbonyl}-5-phenyl-1H-imidazol-1-yl)-1-(ethoxymethyl)cyclohexanol]", "inhibition at 1 µM": 100}
{"compound": "O=C(c1ncn([C@H]2CCCC[C@H]2O)c1-c1ccccc1)N1CCNC[C@H]1Cc1ccccc1", "note": "[Example 352, (1R,2S)-2-(4-{[(2R)-2-Benzylpiperazin-1-yl]carbonyl}-5-phenyl-1H-imidazol-1-yl)cyclohexanol]", "inhibition at 1 µM": 101}
{"compound": "CCCCC1(O)CCCCC1n1cnc(C(=O)N2CCNC[C@H]2Cc2ccccc2)c1-c1ccccc1", "note": "(stereo partly drawn) [Example 360, 2-(4-{[(2R)-2-Benzylpiperazin-1-yl]carbonyl}-5-phenyl-1H-imidazol-1-yl)-1-butylcyclohexanol hydrochloride]", "inhibition at 1 µM": 99}
